In patent US4504580A, “Antibiotics produced by fermentation of a novel strain of Streptomyces hygroscopicus” (Bristol-Myers Company, priority 1983, dated 1985):

Key:
[1] = tested on: Pseudomonas aeruginosa A9930; test: MIC by serial two-fold agar dilution, P. aeruginosa A9930; format: cell-based; conditions: Table 7; Mueller-Hinton agar
Description: (§1) The minimum inhibitory concentrations (MIC) of Bu-2659A, B, C, D and E were determined for a variety of gram-positive and gram-negative bacteria by the serial two-fold agar dilution method using the Steer's multi-inoculating apparatus. The inoculum was standardized as a 10^4 dilution of an overnight culture of the test organisms in Heart Infusion Broth (Difco). […] Reference antibiotics utilized in these tests included commercially available neomycin as well as its components, neomycins B and C [as used herein, the term "neomycin" means the commercial product containing neomycins B and C at an approximate ratio of 7:3], paromomycin [the commercial product containing >90% of paromomycin I and <10% of paromomycin II] and ribostamycin.

[2] = tested on: species of Streptococcus and Mycobacterium; test: Antibacterial activity (MIC), overall, Streptococcus and Mycobacterium, Table 8; format: cell-based
Description: as §1

Micrococcus flavus D12 = test: MIC by serial two-fold agar dilution, M. flavus D12; format: cell-based; conditions: Table 7; Mueller-Hinton agar
Description: as §1

[3] = tested on: Neisseria gonorrhoeae A20143; test: MIC by serial two-fold agar dilution, N. gonorrhoeae A20143; format: cell-based; conditions: Table 8; GC medium
Description: as §1

[4] = tested on: Klebsiella pneumoniae D-11; test: Experimental systemic infection in mice, K. pneumoniae D-11; format: in vivo; conditions: im, single treatment, 4 days
Description: (§2) The in vivo activity of Bu-2659A was assessed by experimental systemic infection in mice. The pathogenic bacteria used in the in vivo tests were E. coli Juhl, K. pneumoniae D-11, P. mirabilis A9906, S. aureus Smith and S. pyogenes A20201. Mice were challenged intraperitoneally with approximately 100×LD50 dose of the pathogens in a 5% suspension of hog gastric mucin (American Laboratories, Omaha, Neb.). A single intramuscular treatment with the antibiotic was given immediately after the bacterial challenge. […] Neomycin was comparatively tested as a reference compound. […] In terms of PD50 value Bu-2659A was about one-half as active as neomycin against infections with S. aureus and S. pyogenes.

[5] = tested on: Klebsiella pneumoniae D11; test: MIC by serial two-fold agar dilution, K. pneumoniae D11; format: cell-based; conditions: Table 7; Mueller-Hinton agar
Description: as §1

[6] = tested on: Mycobacterium smegmatis 607; test: MIC by serial two-fold agar dilution, M. smegmatis 607; format: cell-based; conditions: Table 8; No. 1001 medium
Description: as §1

[7] = tested on: Pseudomonas aeruginosa A20896; test: MIC, aminoglycoside-resistant P. aeruginosa A20896; format: cell-based; conditions: Table 9; inactivating enzyme AAC(3)-II; Mueller-Hinton agar
Description: as §1

Proteus morganii A9553 = test: MIC by serial two-fold agar dilution, P. morganii A9553; format: cell-based; conditions: Table 7; Mueller-Hinton agar
Description: as §1

Mycobacterium phlei = test: MIC by serial two-fold agar dilution, M. phlei; format: cell-based; conditions: Table 8; No. 1001 medium
Description: as §1

Acute toxicity in mice = format: in vivo; conditions: mice
Description: The acute toxicity of Bu-2659A was determined in mice by intravenous, intraperitoneal and subcutaneous routes. Neomycin also was tested for comparison purposes. […] The toxicity of Bu-2659A was approximately 1/3 that of neomycin in terms of LD50 values, thus presenting a potential clinical advantage for Bu-2659A.

Mycobacterium ranae = test: MIC by serial two-fold agar dilution, M. ranae; format: cell-based; conditions: Table 8; No. 1001 medium
Description: as §1

[8] = tested on: Staphylococcus aureus D136; test: MIC by serial two-fold agar dilution, S. aureus D136; format: cell-based; conditions: Table 7; Mueller-Hinton agar
Description: as §1

[9] = tested on: Staphylococcus aureus A20239; test: MIC, aminoglycoside-resistant S. aureus A20239; format: cell-based; conditions: Table 9; inactivating enzyme APH(3')-I,II; Mueller-Hinton agar
Description: as §1

Proteus vulgaris A9436 = test: MIC by serial two-fold agar dilution, P. vulgaris A9436; format: cell-based; conditions: Table 7; Mueller-Hinton agar
Description: as §1

[10] = tested on: Streptococcus pyogenes A20201; test: MIC by serial two-fold agar dilution, S. pyogenes A20201; format: cell-based; conditions: Table 8; GC medium
Description: as §1

[11] = tested on: Enterobacter cloacae A20364; test: MIC, aminoglycoside-resistant E. cloacae A20364; format: cell-based; conditions: Table 9; inactivating enzyme APH(3')-I; Mueller-Hinton agar
Description: as §1

Escherichia coli JR88 = test: MIC, aminoglycoside-resistant E. coli JR88; format: cell-based; conditions: Table 9; inactivating enzyme AAC(3)-I; Mueller-Hinton agar
Description: as §1

[12] = tested on: Staphylococcus aureus Smith; test: MIC by serial two-fold agar dilution, S. aureus Smith; format: cell-based; conditions: Table 7; Mueller-Hinton agar
Description: as §1

[13] = tested on: Serratia marcescens A20019; test: MIC by serial two-fold agar dilution, S. marcescens A20019; format: cell-based; conditions: Table 7; Mueller-Hinton agar
Description: as §1

[14] = tested on: Micrococcus luteus PCI 1001; test: MIC by serial two-fold agar dilution, M. luteus PCI 1001; format: cell-based; conditions: Table 7; Mueller-Hinton agar
Description: as §1

[15] = tested on: Pseudomonas aeruginosa D15; test: MIC by serial two-fold agar dilution, P. aeruginosa D15; format: cell-based; conditions: Table 7; Mueller-Hinton agar
Description: as §1

Escherichia coli Juhl [16] = test: Experimental systemic infection in mice, E. coli Juhl; format: in vivo; conditions: im, single treatment, 4 days
Description: as §2

[17] = tested on: Staphylococcus aureus 209P; test: MIC by serial two-fold agar dilution, S. aureus 209P; format: cell-based; conditions: Table 7; Mueller-Hinton agar
Description: as §1

Escherichia coli Juhl [18] = test: MIC by serial two-fold agar dilution, E. coli Juhl; format: cell-based; conditions: Table 7; Mueller-Hinton agar
Description: as §1

Proteus mirabilis A9906 [19] = test: Experimental systemic infection in mice, P. mirabilis A9906; format: in vivo; conditions: im, single treatment, 4 days
Description: as §2

[20] = tested on: Streptococcus pneumoniae Type I; test: MIC by serial two-fold agar dilution, S. pneumoniae Type I; format: cell-based; conditions: Table 8; GC medium
Description: as §1

Proteus mirabilis A9906 [21] = test: MIC by serial two-fold agar dilution, P. mirabilis A9906; format: cell-based; conditions: Table 7; Mueller-Hinton agar
Description: as §1

Escherichia coli A20107 = test: MIC, aminoglycoside-resistant E. coli A20107; format: cell-based; conditions: Table 9; inactivating enzyme APH(3')-II; Mueller-Hinton agar
Description: as §1

[22] = tested on: Neisseria meningitidis A21496; test: MIC by serial two-fold agar dilution, N. meningitidis A21496; format: cell-based; conditions: Table 8; GC medium
Description: as §1

[23] = tested on: Bacillus brevis IFO 12334; test: MIC, aminoglycoside-resistant B. brevis IFO 12334; format: cell-based; conditions: Table 9; inactivating enzyme ANT (4'); Mueller-Hinton agar
Description: as §1

[24] = tested on: Haemophilus influenzae A9729; test: MIC by serial two-fold agar dilution, H. influenzae A9729; format: cell-based; conditions: Table 8; GC medium
Description: as §1

[25] = tested on: Bacillus subtilis PCI 219; test: MIC by serial two-fold agar dilution, B. subtilis PCI 219; format: cell-based; conditions: Table 7; Mueller-Hinton agar
Description: as §1

[26] = tested on: Escherichia coli NR79/W677; test: MIC, aminoglycoside-resistant E. coli NR79/W677; format: cell-based; conditions: Table 9; inactivating enzyme AAC(6')-I; Mueller-Hinton agar
Description: as §1

Proteus mirabilis A9554 = test: MIC by serial two-fold agar dilution, P. mirabilis A9554; format: cell-based; conditions: Table 7; Mueller-Hinton agar
Description: as §1

Escherichia coli A20732 = test: MIC, aminoglycoside-resistant E. coli A20732; format: cell-based; conditions: Table 9; inactivating enzyme ANT(2"); Mueller-Hinton agar
Description: as §1

Proteus rettgeri A15167 = test: MIC by serial two-fold agar dilution, P. rettgeri A15167; format: cell-based; conditions: Table 7; Mueller-Hinton agar
Description: as §1

[27] = tested on: Escherichia coli JR35/C600; test: MIC, aminoglycoside-resistant E. coli JR35/C600; format: cell-based; conditions: Table 9; inactivating enzyme APH(3')-I; Mueller-Hinton agar
Description: as §1

[28] = tested on: Pseudomonas aeruginosa A20601; test: MIC, aminoglycoside-resistant P. aeruginosa A20601; format: cell-based; conditions: Table 9; inactivating enzymes AAC(3)-I, APH(3')-II; Mueller-Hinton agar
Description: as §1

Escherichia coli ML 1630 = test: MIC, aminoglycoside-resistant E. coli ML 1630; format: cell-based; conditions: Table 9; inactivating enzyme APH(3')-I; Mueller-Hinton agar
Description: as §1

Escherichia coli NIHJ = test: MIC by serial two-fold agar dilution, E. coli NIHJ; format: cell-based; conditions: Table 7; Mueller-Hinton agar
Description: as §1

[29] = tested on: Streptococcus pyogenes A20201; test: Experimental systemic infection in mice, S. pyogenes A20201; format: in vivo; conditions: im, single treatment, 4 days
Description: as §2

[30] = tested on: Staphylococcus aureus Smith; test: Experimental systemic infection in mice, S. aureus Smith; format: in vivo; conditions: im, single treatment, 4 days
Description: as §2

[31] = tested on: Escherichia coli JR66/W677; test: MIC, aminoglycoside-resistant E. coli JR66/W677; format: cell-based; conditions: Table 9; inactivating enzymes APH(3')-II, ANT(2"); Mueller-Hinton agar
Description: as §1

## neomycin
[1]
  MIC: 3.1 µg/mL
[2]
  activity against Streptococcus and Mycobacterium, in words: equivalent activity
Micrococcus flavus D12
  MIC: 3.1 µg/mL
[3]
  MIC: > 400 µg/mL
[4]
  PD50: 0.9 mg/kg
[5]
  MIC: 0.4 µg/mL
[6]
  MIC: 0.4 µg/mL
[7]
  MIC: > 100 µg/mL
Proteus morganii A9553
  MIC: 3.1 µg/mL
Mycobacterium phlei
  MIC: 0.2 µg/mL
Acute toxicity in mice; intraperitoneal
  LD50: 180 mg/kg
Acute toxicity in mice; intravenous
  LD50: 34 mg/kg
Acute toxicity in mice; subcutaneous
  LD50: 280 mg/kg
Mycobacterium ranae
  MIC: 0.4 µg/mL
[8]
  MIC: 0.8 µg/mL
[9]
  MIC: 25 µg/mL
Proteus vulgaris A9436
  MIC: 0.8 µg/mL
[10]
  MIC: 12.5 µg/mL
[11]
  MIC: > 100 µg/mL
Escherichia coli JR88
  MIC: 1.6 µg/mL
[12]
  MIC: 0.8 µg/mL
[13]
  MIC: 1.6 µg/mL
[14]
  MIC: 0.8 µg/mL
[15]
  MIC: 3.1 µg/mL
Escherichia coli Juhl [16]
  PD50: 3.1 mg/kg
[17]
  MIC: 0.4 µg/mL
Escherichia coli Juhl [18]
  MIC: 3.1 µg/mL
Proteus mirabilis A9906 [19]
  PD50: 1.8 mg/kg
[20]
  MIC: 25 µg/mL
Proteus mirabilis A9906 [21]
  MIC: 0.8 µg/mL
Escherichia coli A20107
  MIC: 100 µg/mL
[22]
  MIC: 400 µg/mL
[23]
  MIC: 25 µg/mL
[24]
  MIC: 400 µg/mL
[25]
  MIC: < 0.05 µg/mL
[26]
  MIC: 50 µg/mL
Proteus mirabilis A9554
  MIC: 0.8 µg/mL
Escherichia coli A20732
  MIC: 0.8 µg/mL
Proteus rettgeri A15167
  MIC: 1.6 µg/mL
[27]
  MIC: > 100 µg/mL
[28]
  MIC: 12.5 µg/mL
Escherichia coli ML 1630
  MIC: > 100 µg/mL
Escherichia coli NIHJ
  MIC: 1.6 µg/mL
[29]
  PD50: 50 mg/kg
[30]
  PD50: 0.31 mg/kg
[31]
  MIC: > 100 µg/mL
